Source: ChEMBL document CHEMBL2062363, “Ligand-based design, in silico ADME-Tox filtering, synthesis and biological evaluation to discover new soluble 1,4-DHP-based CFTR activators” (Eur J Med Chem, 2012)

How the values were obtained:
[1] = molecular target: L-type voltage-dependent Ca2+ channel (Homo sapiens, UniProt O60840+Q01668+Q13698+Q13936); test: Inhibition of L-type voltage-dependent Ca2+ channel at 1 uM
[2] = Potentiation of forskolin-induced CFTR deltaF508 mutant expressed in FRT cells co-expressing halide-sensitive YFP-H148Q/I152L by fluorescence quenching assay; type: cell-based, Homo sapiens
[3] = Induction of nitric oxide release in phosphate buffer at pH 7.4 at 10^-4 M after 1 hr by Griess reaction presence of L-cysteine; type: physicochemical; conditions: pH 7.4, 1 h, 100 µM

| inhibition at 1 µM [1] | pEC50 for potentiation of CFTR deltaF508 (activation potency) [2] | SMILES | Activity [3] |
| --- | --- | --- | --- |
| 43.2% | 6.59 | CCOC(=O)C1=C(C)NC(C)=C(C(=O)OCC)C1c1cccc(Oc2ccccc2)c1 | – |
| 20.9% | 5.52 | COC(=O)C1=C(C)NC(C)=C(C(=O)OC)C1c1ccc(C(C)(C)C)cc1 | – |
| 7.1% | 5.92 | CCN(CC)c1ccc(C2C(C(=O)OC)=C(C)NC(C)=C2C(=O)OC)cc1 | – |
| 70.5% | 5.77 | COC(=O)C1=C(C)NC(C)=C(C(=O)OC)C1c1ccccc1 | – |
| 91.9% | 6.21 | COC(=O)C1=C(C)NC(C)=C(C(=O)OC)C1c1cccc(F)c1 | – |
| 23.4% | 5.3 | CCOC(=O)C1=C(C)NC(SC)=C(C#N)C1c1ccccc1 (configuration not stated) | – |
| 47% | 6.27 | CC1=C(C(=O)OC(C)C)C(c2ccc(C)cc2)C(C(=O)OC(C)C)=C(C)N1 | – |
| 8.3% | 5.51 | COC(=O)C1=C(C)NC(C)=C(C(=O)OC)C1c1ccc(-c2ccc(Cl)c(Cl)c2)o1 | – |
| 12.3% | 6.34 | COC(=O)C1=C(C)NC(C)=C(C(=O)OC)C1c1ccc(I)cc1 | – |
| 10.3% | 5.43 | COC(=O)C1=C(C)NC(C)=C(C(=O)OC)C1c1ccc(-c2cccc(Cl)c2Cl)o1 | – |
| 22.5% | 5.46 | COC(=O)C1=C(C)NC(C)=C(C(=O)OC)C1c1ccc(OCc2ccccc2)cc1 | – |
| – | 5.88 | COC(=O)C1=C(C)NC(C)=C(C(=O)OCCCO[N+](=O)[O-])C1c1cccc([N+](=O)[O-])c1 (configuration not stated) | < 0.5% |

Further lines, the compound ahead of its results:

| SMILES | inhibition at 1 µM [1] | pEC50 for potentiation of CFTR deltaF508 (activation potency) [2] | Activity [3] |
| --- | --- | --- | --- |
| CCOC(=O)C1=C(C)NC(C)=C(C(=O)OCC)C1c1ccc([N+](=O)[O-])cc1 | 47.4% | 5.71 | – |
| COCCOC(=O)C1=C(C)N=C(C)/C(=C(/O)OCCOC)C1/C=C/c1ccccc1OC (configuration not stated) | 10.6% | 6.1 | – |
| C=CCO/C(O)=C1\C(C)=NC(SCC)=C(C#N)C1c1ccc(Cl)cc1 (configuration not stated) | 29.7% | 5.58 | – |
| C=CCOC(=O)C1=C(C)NC(C)=C(C(=O)OCC=C)C1/C=C/c1ccccc1OC | 18% | 6.49 | – |
| CCOC(=O)C1=C(C)NC(C)=C(C(=O)OCC)C1c1ccc(C(C)C)cc1 | 30.8% | 6.22 | – |
| CC1=C(C(=O)OC(C)C)C(c2ccc(F)cc2)C(C(=O)OC(C)C)=C(C)N1 | 96.8% | 6.52 | – |
| C=CCOC(=O)C1=C(C)NC(C)=C(C(=O)OCC=C)C1c1cccc([N+](=O)[O-])c1 | 100% | 6.92 | – |
| C=CCOC(=O)C1=C(C)NC(C)=C(C(=O)OCC=C)C1c1ccc(OC)c(OC)c1 | 28.7% | 5.55 | – |
| C=CCOC(=O)C1=C(C)NC(C)=C(C(=O)OCC=C)C1c1ccc(O)c(OCC)c1 | 63.6% | 6.46 | – |
| C=CCOC(=O)C1=C(C)NC(C)=C(C(=O)OCC=C)C1c1ccc(C(C)C)cc1 | 64% | 6.6 | – |
| C=CCOC(=O)C1=C(C)NC(C)=C(C(=O)OCC=C)C1c1ccc(C)cc1 | 55.7% | 6.3 | – |
| CCOC(=O)C1=C(C)NC(C)=C(C(=O)OCC)C1c1c(F)cccc1Cl | 100% | 6.44 | – |
| COCCOC(=O)C1=C(C)NC(C)=C(C(=O)OCCOC)C1c1ccc(-c2cccc(Cl)c2Cl)o1 | 44.9% | 5.7 | – |
| C=CCOC(=O)C1=C(C)NC(C)=C(C(=O)OCC=C)C1c1ccc(Cl)cc1Cl | 81% | 6.4 | – |
| C=CCOC(=O)C1=C(C)NC(SC)=C(C#N)C1c1ccc(Cl)cc1 (configuration not stated) | 36.7% | 6.26 | – |
| CCCCOc1ccc(C2C(C(=O)OCC)=C(C)NC(C)=C2C(=O)OCC)cc1 | 9.6% | 5.52 | – |
| C=CCOC(=O)C1=C(C)NC(C)=C(C(=O)OCC=C)C1c1ccc(N(C)C)cc1 | 23.9% | 5.82 | – |
| C=CCOC(=O)C1=C(C)NC(C)=C(C(=O)OCC=C)C1c1ccc(C(=O)OC)cc1 | 7.8% | 5.52 | – |
| C=CCOC(=O)C1=C(C)NC(C)=C(C(=O)OCC=C)C1c1ccccc1Cl | 100% | 6.74 | – |
| C=CCOC(=O)C1=C(C)NC(C)=C(C(=O)OCC=C)C1c1cccc(Cl)c1 | 100% | 6.82 | – |
| CCOC(=O)C1=C(C)NC(C)=C(C(=O)OCC)C1c1ccc2c(c1)OCO2 | 38.2% | 5.77 | – |
| C=CCOC(=O)C1=C(C)NC(C)=C(C(=O)OCC=C)C1c1ccc(OC)cc1 | 37.2% | 6.3 | – |
| C=CCOC(=O)C1=C(C)NC(C)=C(C(=O)OCC=C)C1c1ccc(I)cc1 | 37.5% | 5.77 | – |
| CC1=C(C(=O)OCCCO[N+](=O)[O-])C(c2cccc([N+](=O)[O-])c2)C([N+](=O)[O-])=C(C)N1 (racemic) | – | 5.07 | < 0.5% |
